Laboratory results reported in patent US20120283325A1, “EXCIPIENT COMPATIBILITY WITH EZATIOSTAT” (Telik, Inc., priority 2011, published 2012).

Experiments:
[1] = Potency results of ezatiostat hydrochloride in binary mixtures, formulations and alone stored at 40° C. and 75% RH; format: physicochemical; conditions: for Potency: 40° C. and 75% RH
Experimental: (§1) Further, ezatiostat hydrochloride was mixed with each of the excipients mentioned in Table 3. The quantity of excipient used was determined by the desired properties of the resulting formulation. These blends were prepared in scintillation vials which were screw Teflon capped and stored at 40° C. and 75% RH.
The potency results of ezatiostat hydrochloride in the binary mixtures of Table 3, Formulations 1 and 2 of Table 2, and ezatiostat hydrochloride alone stored at 40° C. and 75% RH are shown in Table 4.

[2] = Degradation products by HPLC of binary mixtures and formulations of ezatiostat hydrochloride over time; format: physicochemical; conditions: 40° C. and 75% RH
Experimental: as §1
The degradation products were evaluated for each sample using HPLC at initial, 4 weeks, and 8 weeks period. For the initial and 4 week samples, the HPLC autosampler temperature was set at ambient but it was set at 5° C. for samples tested at 8 weeks. The autosampler temperature was lowered due to an observation that individual impurities were increasing during the HPLC run.
The inconsistent results obtained at four weeks were attributed to higher temperature used during HPLC. For this reason, the data at four weeks is not probative for the underlying study.

[3] = 4 weeks, autosampler ambient (data called not probative)

SMILES: CCOC(=O)[C@@H](N)CCC(=O)N[C@@H](CSCc1ccccc1)C(=O)N[C@@H](C(=O)OCC)c1ccccc1.Cl [Ezatiostat•HCl, ethyl (2S)-2-amino-5-[[(2R)-3-benzylsulfanyl-1-[[(JR)-2-ethoxy-2-oxo-1-phenylethyl]amino]-1-oxopropan-2-yl]amino]-5-oxopentanoate]
- Potency ([1]; T = 0 weeks): 102.1%
- Potency ([1]; T = 4 weeks): 102.0%
- Potency ([1]; T = 8 weeks): 100.4%
- Excipient compatibility ([1]; eight weeks at 40° C. and 75% RH): compatible with all the excipients investigated above
- Potency change over eight weeks ([1]; storage at 40° C. and 75% RH): little change
- RS(% Area) RRT 0.74 ([2]; 0 weeks, autosampler ambient): 0.13% Area
- RS(% Area) RRT 0.88 ([2]; 0 weeks, autosampler ambient): 0.09% Area
- RS(% Area) Total ([2]; 0 weeks, autosampler ambient): 0.22% Area
- RS(% Area) RRT 0.74 [2, 3]: 0.28% Area
- RS(% Area) RRT 0.88 [2, 3]: 0.27% Area
- RS(% Area) Total [2, 3]: 0.55% Area
- RS(% Area) RRT 0.74 ([2]; 8 weeks, autosampler 5° C.): 0.07% Area
- RS(% Area) RRT 0.88 ([2]; 8 weeks, autosampler 5° C.): 0.51% Area
- RS(% Area) Total ([2]; 8 weeks, autosampler 5° C.): 0.58% Area
- RS(% Area) RRT 0.88 ([2]; 8 weeks, autosampler 5° C., listed as ezatiostat hydrochloride): 0.51 % Area
